Laboratory results: patent US7879823B2, “Topical anti-cancer compositions and methods of use thereof” (Johnson & Johnson Consumer Companies, priority 1999, dated 2011)

B1: STI: trypsin inhibitor (STI; 0.8 mg; T9003, Sigma) in 100 ul liposomes (protein, UniProt P01070 25-205, looked up)
Trypsin inhibitor A: DFVLDNEGNPLENGGTYYILSDITAFGGIRAAPTGNERCPLTVVQSRNELDKGIGTIISSPYRIRFIAEGHPLSLKFDSFAVIMLCVGIPTEWSVVEDLPEGPAVKIGENKDAMDGWFRLERVSDDEFNNYKLVFCPQQAEDDKCGDIGISIDHDDGTRRLVVSKNKPLVVQFQKLDKESL
modifications: in liposomes
notes: 0.8 mg; T9003, Sigma) in 100 ul liposomes
B2: BBI: Bowman-Birk protease inhibitor (BBI; 0.8 mg; T97770, Sigma) in 100 ul liposomes (protein, UniProt P01055 40-110, looked up)
Bowman-Birk type proteinase …: DDESSKPCCDQCACTKSNPPQCRCSDMRLNSCHSACKSCICALSYPAQCFCVDITDFCYEPCKPSEDDKEN
modifications: in liposomes
notes: 0.8 mg; T97770, Sigma) in 100 ul liposomes

System: Skin Tumors in SKH-1 Mice Previously Treated with Ultraviolet B Light
Assay: Development of skin tumors in high-risk SKH-1 mice previously treated with UVB, topical application
Assay type: in vivo
Conditions: for Effect on tumor growth / tumor progression (tumor volume per mouse), in words: daily topical treatment, 21 weeks of the treatment phase, relative to control; for Percent of mice with tumors / Tumor volume per mouse / Tumor volume per tumor / Tumors per mouse: topical once a day 5 days per week
Description: Co. (Byran, Ohio). […] Controls include vehicle alone and an unrelated protein (BSA). […] Louis, Mo.). Acetone was from Fisher Scientific (Springfield, N.J.).

Molecule | Percent of mice with tumors (week 0) | Tumor volume per mouse (week 0) [mm^3] | Tumor volume per tumor (week 0) [mm^3] | Tumors per mouse (week 0) | Percent of mice with tumors (week 6) [%] | Tumor volume per mouse (week 6) [mm^3] | Tumor volume per tumor (week 6) [mm^3] | Tumors per mouse (week 6) | Tumor volume per mouse (week 9) [mm^3] | Tumor volume per tumor (week 9) [mm^3] | Tumors per mouse (week 9) | Percent of mice with tumors (week 12) [%] | Tumor volume per mouse (week 12) [mm^3] | Tumor volume per tumor (week 12) [mm^3] | Tumors per mouse (week 12) | Percent of mice with tumors (week 15) [%] | Tumor volume per mouse (week 15) [mm^3] | Tumor volume per tumor (week 15) [mm^3] | Tumors per mouse (week 15) | Percent of mice with tumors (week 18) [%] | other results
Cn1c(=O)c2c(ncn2C)n(C)c1=O [Caffeine, caffeine] | 0 | 0 | 0 | 0 | 16.7 | 0.2 ± 0.1 | 1.3 ± 0.7 | 0.2 ± 0.1 | 0.7 ± 0.5 | 3.4 ± 2.2 | 0.2 ± 0.1 | 50.0 | 4.0 ± 1.9 | 3.2 ± 0.8 | 1.3 ± 0.4 | 56.7 | 6.7 ± 2.2 | 3.2 ± 0.6 | 2.1 ± 0.5 | 80.0 | Effect on tumor growth / tumor progression (tumor volume per mouse), in words: marked delay in tumor progression; Number of tumors per mouse, in words (following topical treatment): reduced; Percent of tumor-bearing mice, in words (following topical treatment): reduced; Tumor volume per tumor, in words (following topical treatment): reduced; Tumor volume per mouse (week 18): 22.1 ± 6.2 mm^3; Tumor volume per tumor (week 18): 6.2 ± 1.3 mm^3; Tumors per mouse (week 18): 3.6 ± 0.6; Percent of mice with tumors (week 21): 76.7%; Tumor volume per mouse (week 21): 21.5 ± 6.0 mm^3; Tumor volume per tumor (week 21): 5.3 ± 1.0 mm^3; Tumors per mouse (week 21): 4.0 ± 0.7
BSA in liposomes: bovine serum albumin (0.8 mg) in 100 ul liposomes; unrelated protein control | 0 | 0 | 0 | 0 | 20.0 | 0.6 ± 0.5 | 2.5 ± 1.9 | 2.0 ± 0.1 | 2.9 ± 1.4 | 2.7 ± 1.2 | 1.1 ± 0.3 | 80.0 | 9.1 ± 3.1 | 3.5 ± 1.0 | 2.6 ± 0.6 | 90.0 | 21.4 ± 6.6 | 4.0 ± 0.7 | 5.3 ± 0.8 | 90.0 | Percent of mice with tumors (week 9): 50.0%; Tumor volume per mouse (week 18): 41.1 ± 9.7 mm^3; Tumor volume per tumor (week 18): 6.3 ± 1.0 mm^3; Tumors per mouse (week 18): 6.5 ± 0.9; Percent of mice with tumors (week 21): 90.0%; Tumor volume per mouse (week 21): 44.7 ± 11.6 mm^3; Tumor volume per tumor (week 21): 6.3 ± 1.0 mm^3; Tumors per mouse (week 21): 7.1 ± 0.8
B1 | 0 | 0 | 0 | 0 | 16.7 | 0.8 ± 0.6 | 3.5 ± 1.9 | 0.2 ± 0.1 | 2.6 ± 1.4 | 3.0 ± 1.4 | 0.9 ± 0.2 | 46.7 | 9.4 ± 3.9 | 4.8 ± 1.3 | 1.9 ± 0.5 | 55.2 | 17.8 ± 7.9 | 5.8 ± 2.1 | 3.1 ± 0.7 | 63.3 | Effect on tumor growth / tumor progression (tumor volume per mouse), in words: unexpected and significant effect on tumor progression; Percent of mice with tumors (week 9): 41.4%; Tumor volume per mouse (week 18): 30.7 ± 11.9 mm^3; Tumor volume per tumor (week 18): 7.3 ± 2.2 mm^3; Tumors per mouse (week 18): 4.2 ± 0.9; Percent of mice with tumors (week 21): 80.0%; Tumor volume per mouse (week 21): 48.7 ± 23.3 mm^3; Tumor volume per tumor (week 21): 8.6 ± 3.2 mm^3; Tumors per mouse (week 21): 5.6 ± 0.9
B2 | 0 | 0 | 0 | 0 | 30.0 | 0.3 ± 0.1 | 0.9 ± 0.3 | 0.4 ± 0.1 | 1.0 ± 0.7 | 1.7 ± 0.8 | 0.6 ± 0.2 | 50.0 | 3.7 ± 1.8 | 2.4 ± 0.8 | 1.5 ± 0.4 | 66.7 | 9.0 ± 2.4 | 4.1 ± 0.8 | 2.2 ± 0.4 | 76.7 | Percent of mice with tumors (week 9): 27.6%; Tumor volume per mouse (week 18): 19.0 ± 4.6 mm^3; Tumor volume per tumor (week 18): 5.9 ± 1.3 mm^3; Tumors per mouse (week 18): 3.2 ± 0.6; Percent of mice with tumors (week 21): 90.0%; Tumor volume per mouse (week 21): 33.2 ± 9.6 mm^3; Tumor volume per tumor (week 21): 7.4 ± 2.0 mm^3; Tumors per mouse (week 21): 4.5 ± 0.6
